Where a chain is given by its changes, count along the chain named. Counter-ions that a name gives are not always drawn. Like-named read-outs stand apart in the source and are kept apart here.
Key:
[1] = molecular target: T1, RET(KD: 658-1114 G810R) (Homo sapiens, UniProt P07949, G810R); test: HiBiT-Degradation, RET G810R degradation assay (Nano-Glo HiBiT Lytic), 293T.165 cells; type: cell-based; details: for Emax / DC50: 6.0 hours; for Emax: % remaining protein, read-out: 293T.165 RET(KD: 658-1114 G810R) 6.0 hours (Emax); for DC50: read-out: 293T.165 RET(KD: 658-1114 G810R) 6.0 hours (DC50)
T1 construct: 658-1114; expressed in transfected cells; host or cells: 293T.165 (293T cells, generated in-house)
T1 sequence (P07949 658-1114 G810R): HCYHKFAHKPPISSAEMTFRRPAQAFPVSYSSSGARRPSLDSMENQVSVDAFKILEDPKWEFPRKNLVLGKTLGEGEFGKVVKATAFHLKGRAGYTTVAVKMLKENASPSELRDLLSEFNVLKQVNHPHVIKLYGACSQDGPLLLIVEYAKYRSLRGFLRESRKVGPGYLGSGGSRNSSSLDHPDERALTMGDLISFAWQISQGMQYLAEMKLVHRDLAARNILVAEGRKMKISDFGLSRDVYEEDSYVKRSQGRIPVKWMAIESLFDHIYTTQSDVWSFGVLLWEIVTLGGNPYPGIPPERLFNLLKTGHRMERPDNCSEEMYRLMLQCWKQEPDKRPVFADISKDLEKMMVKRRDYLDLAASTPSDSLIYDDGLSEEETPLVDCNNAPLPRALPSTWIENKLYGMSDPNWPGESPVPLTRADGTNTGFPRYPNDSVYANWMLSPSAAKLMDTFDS
Method in brief: (§1)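 HEK293T lines stably expressing HiBiT-tagged RET kinase domain (WT: 293T.144; G810R: 293T.165) were treated with degraders for 6 h in duplicate, 11-point half-log series from 10 μM top dose. Lysis with Nano-Glo HiBiT Lytic reagent, luminescence read; DC50 and Emax (% remaining protein) derived from dose-response curves.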

[2] = molecular target: T2, RET (658-1114) (Homo sapiens, UniProt P07949); test: HiBiT-Degradation, RET wild-type degradation assay (Nano-Glo HiBiT Lytic), 293T.144 cells; type: cell-based; details: for DC50 / Emax: 6.0 hours; for DC50: read-out: 293T.144 RET (658-1114) 6.0 hours (DC50); for Emax: read-out: 293T.144 RET (658-1114) 6.0 hours (Emax)
T2 construct: 658-1114; expressed in transfected cells; host or cells: 293T.144 (293T cells, generated in-house)
T2 sequence (P07949 658-1114): T1 sequence (P07949 658-1114 G810R) with R153G
Method in brief: as §1

[3] = half-maximal degradation concentration

Emax [1] [%]	DC50 [1, 3] [µM]	293T.165 RET(KD: 658-1114 G810R) 6.0 hours (Emax) ([1]; HiBiT-Degradation)	293T.165 RET(KD: 658-1114 G810R) 6.0 hours (IP) [nM] ([1]; HiBiT-Degradation)	DC50 ([1]; HiBiT-Degradation) [µM]	293T.144 RET (658-1114) 6.0 hours (IP) [nM] ([2]; HiBiT-Degradation)	DC50 ([2]; HiBiT-Degradation) [µM]	Emax ([2]; HiBiT-Degradation) [%]	293T.165 RET(KD: 658-1114 G810R) 6.0 hours (IP) [nM] [1]	293T.144 RET (658-1114) 6.0 hours (IP) [nM] [2]	Emax ([2]; % remaining protein) [%]	DC50 [2, 3] [µM]	SMILES
< 50	< 0.05	+++ (<50% = +++)	++++ (< 50 nM = ++++)	< 0.05	++++ (< 50 nM = ++++)	< 0.05	< 30					N#Cc1cnn2cc(-c3ccc(N4CCN(C(=O)CC5(O)CCN(c6ccc(NC7CCC(=O)NC7=O)cc6F)CC5)CC4)cc3)cc(-c3ccc(N4CCN(C(=O)Cc5ccc(F)cn5)CC4)nc3)c12 (centres unmarked) [Compound 26, 6-[4-[4-[2-[1-[4-[(2,6-Dioxo-3-piperidyl)amino]-2-fluoro-phenyl]-4-hydroxy-4-piperidyl]acetyl]piperazin-1-yl]phenyl]-4-[6-[4-[2-(5-fluoro-2-pyridyl)acetyl]piperazin-1-yl]-3-pyridyl]pyrazolo[1,5-a]pyridine-3-carbonitrile]
< 30	< 0.1	++++ (< 30% = ++++)	++++ (< 50 nM = ++++)	< 0.1	++++ (< 50 nM = ++++)	< 0.05	< 30					N#Cc1cnn2cc(-c3cnn(C4CCN(C(=O)CN5CCC(c6ccc(NC7CCC(=O)NC7=O)cc6)CC5)CC4)c3)cc(-c3ccc(N4CCN(C(=O)Cc5ccc(F)cn5)CC4)nc3)c12 (centres unmarked) [Compound 15, 6-[1-[1-[2-[4-[4-[(2,6-dioxo-3-piperidyl)amino]phenyl]-1-piperidyl]acetyl]-4-piperidyl]pyrazol-4-yl]-4-[6-[4-[2-(5-fluoro-2-pyridyl)acetyl]piperazin-1-yl]-3-pyridyl]pyrazolo[1,5-a]pyridine-3-carbonitrile formic acid salt]
< 30	< 0.05							++++ (<50 nM = ++++)	++++ (<50 nM = ++++)	< 30	< 0.05	CCC1(C(=O)NC2CCCC2)CCN(c2ccc(-c3nc(-c4cnn([C@H]5CC[C@H](N6CCC(c7ccc(N[C@H]8CCC(=O)NC8=O)cc7F)CC6)CC5)c4)cn4ncc(C#N)c34)cn2)CC1 [Compound 141, 1-[5-[3-cyano-6-[1-[4-[4-[4-[[(3S)-2,6-dioxo-3-piperidyl]amino]-2-fluoro-phenyl]-1-piperidyl]cyclohexyl]pyrazol-4-yl]pyrazolo[1,5-a]pyrazin-4-yl]-2-pyridyl]—N-cyclopentyl-4-ethyl-piperidine-4-carboxamide]
< 30	< 0.05	++++ (< 30% = ++++)	++++ (< 50 nM = ++++)	< 0.05	++++ (< 50 nM = ++++)	< 0.05	< 30					N#Cc1cnn2cc(-c3ccc(N4CCN(C(=O)CN5CCC(c6ccc(NC7CCC(=O)NC7=O)cc6)CC5)CC4)cc3)cc(-c3ccc(N4CC5CC5C4)nc3)c12 (centres unmarked) [Compound 17, 4-[6-(3-azabicyclo[3.1.0]hexan-3-yl)-3-pyridyl]-6-[4-[4-[2-[4-[4-[(2,6-dioxo-3-piperidyl)amino]phenyl]-1-piperidyl]acetyl]piperazin-1-yl]phenyl]pyrazolo[1,5-a]pyridine-3-carbonitrile]
< 30	< 0.1							++++ (<50 nM = ++++)	++++ (<50 nM = ++++)	< 30	< 0.05	CCC1(C(=O)NC[C@H]2C[C@@H](F)C2)CCN(c2ccc(-c3nc(-c4cnn([C@H]5CC[C@H](N6CCN(c7ccc(NC8CCC(=O)NC8=O)cc7F)CC6)CC5)c4)cn4ncc(C#N)c34)cn2)CC1 (some centres unmarked) [Compound 210, 1-[5-[3-cyano-6-[1-[4-[4-[4-[(2,6-dioxo-3-piperidyl)amino]-2-fluoro-phenyl]piperazin-1-yl]cyclohexyl]pyrazol-4-yl]pyrazolo[1,5-a]pyrazin-4-yl]-2-pyridyl]-4-ethyl-N-[(3-fluorocyclobutyl)methyl]piperidine-4-carboxamide]
< 30	< 0.05							++++ (<50 nM = ++++)	++++ (<50 nM = ++++)	< 30	< 0.05	CC1(c2ncccn2)CCN(c2ccc(-c3nc(-c4cnn(C5CCN(C(=O)CC6(O)CCN(c7ccc(NC8CCC(=O)NC8=O)cc7F)CC6)CC5)c4)cn4ncc(C#N)c34)cn2)CC1 (centres unmarked) [Compound 104, 6-[1-[1-[2-[1-[4-[(2,6-dioxo-3-piperidyl)amino]-2-fluoro-phenyl]-4-hydroxy-4-piperidyl]acetyl]-4-piperidyl]pyrazol-4-yl]-4-[6-(4-methyl-4-pyrimidin-2-yl-1-piperidyl)-3-pyridyl]pyrazolo[1,5-a]pyrazine-3-carbonitrile]
< 50	< 0.1							+++ (<100 nM = +++)	++++ (<50 nM = ++++)	< 30	< 0.05	CCC1(C(=O)NC(C)C)CCN(c2ccc(-c3nc(-c4ccc(N5CCN(C(=O)CC6(O)CCN(c7ccc8c(N9CCC(=O)NC9=O)nn(C)c8c7)CC6)CC5)cc4)cn4ncc(C#N)c34)cn2)CC1 [Compound 173, 1-(5-(3-cyano-6-(4-(4-(2-(1-(3-(2,4-dioxotetrahydropyrimidin-1(2H)-yl)-1-methyl-1H-indazol-6-yl)-4-hydroxypiperidin-4-yl)acetyl)piperazin-1-yl)phenyl)pyrazolo[1,5-a]pyrazin-4-yl)pyridin-2-yl)-4-ethyl-N-isopropylpiperidine-4-carboxamide]
< 50	< 0.05	+++ (<50% = +++)	++++ (< 50 nM = ++++)	< 0.05	++++ (< 50 nM = ++++)	< 0.05	< 30					C[C@H](c1ccccn1)N1CCN(c2ccc(-c3nc(-c4cnn(C5CCN(C(=O)CC6(O)CCN(c7ccc(NC8CCC(=O)NC8=O)cc7F)CC6)CC5)c4)cn4ncc(C#N)c34)cn2)CC1 (stereo partly drawn) [Compound 1, 6-[1-[1-[2-[1-[4-[(2,6-dioxo-3-piperidyl)amino]-2-fluoro-phenyl]-4-hydroxy-4-piperidyl]acetyl]-4-piperidyl]pyrazol-4-yl]-4-[6-[4-[(1R)-1-(2-pyridyl)ethyl]piperazin-1-yl]-3-pyridyl]pyrazolo[1,5-a]pyrazine-3-carbonitrile]

SMILES	Emax [1] [%]	DC50 [1, 3] [µM]	293T.165 RET(KD: 658-1114 G810R) 6.0 hours (Emax) ([1]; HiBiT-Degradation)	293T.165 RET(KD: 658-1114 G810R) 6.0 hours (IP) [nM] ([1]; HiBiT-Degradation)	DC50 ([1]; HiBiT-Degradation) [µM]	293T.144 RET (658-1114) 6.0 hours (IP) [nM] ([2]; HiBiT-Degradation)	DC50 ([2]; HiBiT-Degradation) [µM]	Emax ([2]; HiBiT-Degradation) [%]	293T.165 RET(KD: 658-1114 G810R) 6.0 hours (IP) [nM] [1]	293T.144 RET (658-1114) 6.0 hours (IP) [nM] [2]	Emax ([2]; % remaining protein) [%]	DC50 [2, 3] [µM]
COc1cc(N2CCN([C@H]3CC[C@H](n4cc(-c5cn6ncc(C#N)c6c(-c6ccc(N7C[C@H]8COC[C@@H](C7)N8CC7CCOCC7)nc6)n5)cn4)CC3)CC2)c(F)cc1NC1CCC(=O)NC1=O (single isomer, unassigned) [Compound 166]	< 30	< 0.1							++++ (<50 nM = ++++)	++++ (<50 nM = ++++)	< 30	< 0.05

Source: patent US12661410B2, “Compounds for targeted degradation of RET” (C4 Therapeutics, Inc., priority 2020, dated 2026)
